From patent US9315500B2, “Bicyclic heteroaryl cycloalkyldiamine derivatives” (NOVARTIS AG, priority 2012, dated 2016)

These compounds were tested against SYK (SYK(2-635)) (Homo sapiens (Human), UniProt P43405) (assay: SYK enzyme assay (chip based microfluidic mobility shift assay)). Settings: SYK kinase, 4 μM ATP/peptide solution, 30° C., 60 minutes, Caliper mobility shift.
Assay type: biochemical
Method: A number of compounds of the present invention were assayed in a chip based microfluidic mobility shift assay. All assays were performed in 384 well microtiter plates. Each assay plate contained 8-point serial dilutions for 40 test compounds, as well as four 8-point serial dilutions of staurosporine as reference compound, plus 16 high- and 16 low controls. Liquid handling and incubation steps were done on a Thermo CatX workstation equipped with a Innovadyne Nanodrop Express. Between pipetting steps, tips were cleaned in wash cycles using wash buffer. The assay plates were prepared by addition of 50 nl per well of compound solution in 90% DMSO. The kinase reactions were started by stepwise addition of 4.5 μl per well of peptide/ATP-solution (50 mM HEPES, pH 7.5, 1 mM DTT, 0.02% Tween20, 0.02% BSA, 0.6% DMSO, 10 mM beta-glycerophosphate, and 10 μM sodium orthovanadate, 1 mM MgCl2, 3 mM MnCl2, 4 μM ATP, 4 μM peptide (5-Fluo-Ahx-GAPDYENLQELNKK-Amid) and 4.5 μl per well of enzyme solution (50 mM HEPES, pH 7.5, 1 mM DTT, 0.02% Tween20, 0.02% BSA, 0.6% DMSO, 10 mM beta-glycerophosphate, and 10 μM sodium orthovanadate, 1 mM MgCl2, 3 mM MnCl2, 4 nM SYK (SYK(2-635), produced in-house from insect cells). Kinase reactions were incubated at 30° C. for 60 minutes and subsequently terminated by addition of 16 μl per well of stop solution (100 mM HEPES pH 7.5, 5% DMSO, 0.1% Caliper coating reagent, 10 mM EDTA, and 0.015% Brij35). Plates with terminated kinase reactions were transferred to the Caliper LC3000 workstations for reading. Phosphorylated and unphosphorylated peptides were separated using the Caliper microfluidic mobility shift technology. Briefly, samples from terminated kinase reactions were applied to the chip. Analytes are transported through the chip by constant buffer flow and the migration of the substrate peptide is monitored by the fluorescence signal of its label. Phosphorylated peptide (product) and unphosphorylated peptide (substrate) are separated in an electric field by their charge/mass ratio. Kinase activities were calculated from the amounts of formed phospho-peptide. IC50 values were determined from percent inhibition values at different compound concentrations by non-linear regression analysis.
Test compounds were dissolved in DMSO (10 mM) and transferred into 1.4 mL flat bottom or V-shaped Matrix tubes carrying a unique 2D matrix. The stock solutions were stored at […] if not used immediately. For the test procedure the vials were defrosted and identified by a scanner whereby a working sheet was generated that guided the subsequent working steps.
Compound dilutions were made in 96 well plates. This format enabled the assay of maximally 40 individual test compounds at 8 concentrations (single points) including 4 reference compounds. The dilution protocol included the production of “pre-dilution plates”, “master plates” and “assay plates”.
Pre-dilution plates: 96 polypropylene well plates were used as pre-dilution plates. A total of 4 pre-dilution plates were prepared including 10 test compounds each on the plate positions A1-A10, one standard compound at A11 and one DMSO control at A12. All dilution steps were done on a HamiltonSTAR robot.
Master plates: 30 μL of individual compound dilutions including standard compound and controls of the 4 “pre-dilution plates” were transferred into a 384 “master plate” including the following concentrations 1′810, 362, 72.5, […], 14.5, 2.9, 0.58 and 0.12 μM, respectively in 90% of DMSO.
Assay plates: Identical “assay plates” were then prepared by pipetting 50 nL each of compound dilutions of the “master plates” into 384-well “assay plates” by means of a HummingBird 384-channel dispenser. These plates were used directly for the assay which was performed in a total volume of 9.05 μL. This led to a final compound concentration of 10, 2.0, 0.4, 0.08, 0.016, 0.0032, 0.00064 and 0.000128 μM and a final DMSO concentration of 0.5% in the assay.

Row | SMILES | IC50
1 | N[C@H]1CCCC[C@H]1Nc1cc2cn[nH]c(=O)c2c(Nc2cccc3[nH]ncc23)n1 [Example 2.10, 7-((1R,2S)-2-Amino-cyclohexylamino)-5-(1H-indazol-4-ylamino)-3H-pyrido[3,4-d]pyridazin-4-one] | 5.2 nM
2 | Cc1ccc(Nc2nc(N[C@@H]3CCCC[C@@H]3N)cc3cn[nH]c(=O)c23)c2cccnc12 [Example 2.13, 7-((1R,2S)-2-Amino-cyclohexylamino)-5-(8-methyl-quinolin-5-ylamino)-3H-pyrido[3,4-d]pyridazin-4-one] | 7 nM
3 | N[C@H]1CCCC[C@H]1Nc1nc(Nc2cccc3ncccc23)c2c(=O)[nH]ncc2c1F [Example 1.2, 7-((1R,2S)-2-Amino-cyclohexylamino)-8-fluoro-5-(quinolin-5-ylamino)-3H-pyrido[3,4-d]pyridazin-4-one] | 44 nM
4 | N[C@H]1CCCC[C@H]1Nc1cc2cn[nH]c(=O)c2c(Nc2cccc3cccnc23)n1 [Example 2.20, 7-((1R,2S)-2-Amino-cyclohexylamino)-5-(quinolin-8-ylamino)-3H-pyrido[3,4-d]pyridazin-4-one] | 45 nM
5 | N[C@H]1CCCC[C@H]1Nc1cc2cn[nH]c(=O)c2c(Nc2cccc3ncccc23)n1 [Example 2.16, 7-((1R,2S)-2-Amino-cyclohexylamino)-5-(quinolin-5-ylamino)-3H-pyrido[3,4-d]pyridazin-4-one] | 9 nM
6 | N[C@H]1CCCC[C@H]1Nc1cc2cn[nH]c(=O)c2c(Nc2cnc3ccccc3c2)n1 [Example 2.11, 7-((1R,2S)-2-Amino-cyclohexylamino)-5-(quinolin-3-ylamino)-3H-pyrido[3,4-d]pyridazin-4-one] | 5.4 nM
7 | Cc1cc2c(Nc3nc(N[C@@H]4CCCC[C@@H]4N)cc4cn[nH]c(=O)c34)cccc2[nH]1 [Example 2.17, 7-((1R,2S)-2-Amino-cyclohexylamino)-5-(2-methyl-1H-indol-4-ylamino)-3H-pyrido[3,4-d]pyridazin-4-one] | 16 nM
8 | N[C@H]1CCCC[C@H]1Nc1cc2cn[nH]c(=O)c2c(Nc2cccc3[nH]ccc23)n1 [Example 2.9, 7-((1R,2S)-2-Amino-cyclohexylamino)-5-(1H-indol-4-ylamino)-3H-pyrido[3,4-d]pyridazin-4-one] | 2.7 nM
9 | N[C@H]1COCC[C@H]1Nc1cc2cn[nH]c(=O)c2c(Nc2cccc3cc[nH]c23)n1 [Example 3.4, 7-((3R,4R)-3-Amino-tetrahydro-pyran-4-ylamino)-5-(1H-indol-7-ylamino)-3H-pyrido[3,4-d]pyridazin-4-one] | 32 nM
10 | Cc1ccc2c(Nc3nc(N[C@@H]4CCCC[C@@H]4N)cc4cn[nH]c(=O)c34)cccc2n1 [Example 2.8, 7-((1R,2S)-2-Amino-cyclohexylamino)-5-(2-methyl-quinolin-5-ylamino)-3H-pyrido[3,4-d]pyridazin-4-one] | 2.3 nM
11 | N[C@H]1CCCC[C@H]1Nc1cc2cn[nH]c(=O)c2c(Nc2ccc3cccnc3c2)n1 [Example 2.19, 7-((1R,2S)-2-Amino-cyclohexylamino)-5-(quinolin-7-ylamino)-3H-pyrido[3,4-d]pyridazin-4-one] | 42 nM
12 | N#Cc1c[nH]c2c(Nc3nc(N[C@@H]4CCCC[C@@H]4N)cc4cn[nH]c(=O)c34)cccc12 [Example 2.14, 7-[7-((1R,2S)-2-Amino-cyclohexylamino)-4-oxo-3,4-dihydro-pyrido[3,4-d]pyridazin-5-ylamino]-1H-indole-3-carbonitrile] | 8 nM
13 | Cc1c[nH]c2c(Nc3nc(N[C@@H]4CCOC[C@@H]4N)cc4cn[nH]c(=O)c34)cccc12 [Example 3.1, 7-((3R,4R)-3-Amino-tetrahydro-pyran-4-ylamino)-5-(3-methyl-1H-indol-7-ylamino)-3H-pyrido[3,4-d]pyridazin-4-one] | 9 nM
14 | N[C@H]1CCCC[C@H]1Nc1cc2cn[nH]c(=O)c2c(Nc2cccc3cc[nH]c23)n1 [Example 2.12, 7-((1R,2S)-2-Amino-cyclohexylamino)-5-(1H-indol-7-ylamino)-3H-pyrido[3,4-d]pyridazin-4-one] | 7 nM
15 | N[C@H]1CCCC[C@H]1Nc1cc2cn[nH]c(=O)c2c(Nc2ccc3nccnc3c2)n1 [Example 2.18, 7-((1R,2S)-2-Amino-cyclohexylamino)-5-(quinoxalin-6-ylamino)-3H-pyrido[3,4-d]pyridazin-4-one] | 26 nM
16 | Cc1ccc(Nc2nc(N[C@@H]3CCCC[C@@H]3N)cc3cn[nH]c(=O)c23)c2cc[nH]c12 [Example 2.15, 7-((1R,2S)-2-Amino-cyclohexylamino)-5-(7-methyl-1H-indol-4-ylamino)-3H-pyrido[3,4-d]pyridazin-4-one] | 9 nM

Now those with a lower IC50, led by results:

Row | IC50 | SMILES
17 | 2.1 nM | N[C@H]1CCCC[C@H]1Nc1cc2cn[nH]c(=O)c2c(Nc2cccc3sccc23)n1 [Example 2.7, 7-((1R,2S)-2-Amino-cyclohexylamino)-5-(benzo[b]thiophen-4-ylamino)-3H-pyrido[3,4-d]pyridazin-4-one]
18 | 2 nM | Cc1c[nH]c2c(Nc3nc(N[C@@H]4CCCC[C@@H]4N)c(F)c4cn[nH]c(=O)c34)cc(F)cc12 [Example 1.1, 7-((1R,2S)-2-Amino-cyclohexylamino)-8-fluoro-5-(5-fluoro-3-methyl-1H-indol-7-ylamino)-3H-pyrido[3,4-d]pyridazin-4-one]
19 | 2 nM | Cc1c[nH]c2c(Nc3nc(N[C@@H]4CCOC[C@@H]4N)cc4cn[nH]c(=O)c34)cc(F)cc12 [Example 3.3, 7-((3R,4R)-3-Amino-tetrahydro-pyran-4-ylamino)-5-(5-fluoro-3-methyl-1H-indol-7-ylamino)-3H-pyrido[3,4-d]pyridazin-4-one]
20 | 2 nM | N[C@H]1CCCC[C@H]1Nc1cc2cn[nH]c(=O)c2c(Nc2cccc3occc23)n1 [Example 2.6, 7-((1R,2S)-2-Amino-cyclohexylamino)-5-(benzofuran-4-ylamino)-3H-pyrido[3,4-d]pyridazin-4-one]
21 | 1.8 nM | N[C@H]1COCC[C@H]1Nc1cc2cn[nH]c(=O)c2c(Nc2cccc3sccc23)n1 [Example 3.2, 7-((3R,4R)-3-Amino-tetrahydro-pyran-4-ylamino)-5-(benzo[b]thiophen-4-ylamino)-3H-pyrido[3,4-d]pyridazin-4-one]
22 | 1.6 nM | Cc1c[nH]c2c(Nc3nc(N[C@@H]4CCCC[C@@H]4N)cc4cn[nH]c(=O)c34)cccc12 [Example 2.1, 7-((1R,2S)-2-Amino-cyclohexylamino)-5-(3-methyl-1H-indol-7-ylamino)-3H-pyrido[3,4-d]pyridazin-4-one]
23 | 1.6 nM | N[C@H]1CCCC[C@H]1Nc1cc2cn[nH]c(=O)c2c(Nc2ccc3ncccc3c2)n1 [Example 2.5, 7-((1R,2S)-2-Amino-cyclohexylamino)-5-(quinolin-6-ylamino)-3H-pyrido[3,4-d]pyridazin-4-one]
24 | 1.3 nM | Cc1c[nH]c2c(Nc3nc(N[C@@H]4CCCC[C@@H]4N)cc4cn[nH]c(=O)c34)cc(F)cc12 [Example 2.4, 7-((1R,2S)-2-Amino-cyclohexylamino)-5-(5-fluoro-3-methyl-1H-indol-7-ylamino)-3H-pyrido[3,4-d]pyridazin-4-one]
25 | 1.1 nM | Cn1cc2c(Nc3nc(N[C@@H]4CCCC[C@@H]4N)cc4cn[nH]c(=O)c34)cccc2n1 [Example 2.3, 7-((1R,2S)-2-Amino-cyclohexylamino)-5-(2-methyl-2H-indazol-4-ylamino)-3H-pyrido[3,4-d]pyridazin-4-one]
26 | 0.6 nM | Cn1ccc2c(Nc3nc(N[C@@H]4CCCC[C@@H]4N)cc4cn[nH]c(=O)c34)cccc21 [Example 2.2, 7-((1R,2S)-2-Amino-cyclohexylamino)-5-(1-methyl-1H-indol-4-ylamino)-3H-pyrido[3,4-d]pyridazin-4-one]
